Values of other authors in patent US20250134147A1, “METHODS AND COMPOSITIONS FOR IMPROVED SUGAR-LIKE TASTE” (ALMENDRA (THAILAND) LTD., priority 2021, published 2025).
Read-outs that look alike come from different tables or passages of the source.

Legend:
[1] = for sweetness potency, times higher than sucrose: relative to sucrose, Tanaka 1987 / Phillips 1989; for sweetness potency, times more potent than sucrose: sensory evaluations, Crammer and Ikan 1986
[2] = comparison among steviol glycosides
[3] = Kinghorn 2002

Row | SMILES | sweetness potency, times higher than sucrose [1] | taste quality / sensory attributes [2] | also measured
1 | C=C1C[C@@]23CC[C@H]4[C@@](C)(CCC[C@@]4(C)C(=O)O[C@@H]4O[C@H](CO)[C@@H](O)[C@H](O)[C@H]4O)[C@@H]2CC[C@]1(O[C@@H]1O[C@H](CO)[C@@H](O)[C@H](O)[C@H]1O[C@@H]1O[C@H](CO)[C@@H](O)[C@H](O)[C@H]1O)C3 [Stevioside] | 110-270 times | – | –
2 | C=C1C[C@@]23CC[C@H]4[C@@](C)(CCC[C@@]4(C)C(=O)O[C@@H]4O[C@H](CO)[C@@H](O)[C@H](O)[C@H]4O[C@@H]4O[C@H](CO)[C@@H](O)[C@H](O)[C@H]4O)[C@@H]2CC[C@]1(O[C@@H]1O[C@H](CO)[C@@H](O)[C@H](O[C@@H]2O[C@H](CO)[C@@H](O)[C@H](O)[C@H]2O)[C@H]1O[C@@H]1O[C@H](CO)[C@@H](O)[C@H](O)[C@H]1O)C3 [Rebaudioside D] | – | very desirable taste profile | –
3 | C=C1C[C@@]23CC[C@H]4[C@@](C)(CCC[C@@]4(C)C(=O)O)[C@@H]2CC[C@]1(O[C@@H]1O[C@H](CO)[C@@H](O)[C@H](O)[C@H]1O[C@@H]1O[C@H](CO)[C@@H](O)[C@H](O)[C@H]1O)C3 [Steviolbioside] | – | significantly inferior to that of stevioside | –
4 | C=C1C[C@@]23CC[C@H]4[C@@](C)(CCC[C@@]4(C)C(=O)O)[C@@H]2CC[C@]1(O[C@@H]1O[C@H](CO)[C@@H](O)[C@H](O[C@@H]2O[C@H](CO)[C@@H](O)[C@H](O)[C@H]2O)[C@H]1O[C@@H]1O[C@H](CO)[C@@H](O)[C@H](O)[C@H]1O)C3 [Rebaudioside B, (4R,4αS,6αR,9S,11αR,11βS)-9-(((2S,3R,5R,6R)-5-hydroxy-6-(hydroxymethyl)-4-(((2S,3R,4S,5S,6R)-3,4,5-trihydroxy-6-(hydroxymethyl)tetrahydro-2H-pyran-2-yl)oxy)-3-(((3R,4S,5S,6R)-3,4,5-trihydroxy-6-(hydroxymethyl)tetrahydro-2H-pyran-2-yl)oxy)tetrahydro-2H-pyran-2-yl)oxy)-4,11β-dimethyl-8-methylenetetradecahydro-6α,9-methanocyclohepta[a]naphthalene-4-carboxylic acid] | – | – | sweetness potency, times more potent than sucrose [1]: 300-350 times; water solubility [3]: about 0.1%
5 | C=C1C[C@@]23CC[C@H]4[C@@](C)(CCC[C@@]4(C)C(=O)O[C@@H]4O[C@H](CO)[C@@H](O)[C@H](O)[C@H]4O)[C@@H]2CC[C@]1(O[C@@H]1O[C@H](CO)[C@@H](O)[C@H](O)[C@H]1O[C@@H]1O[C@@H](C)[C@H](O)[C@@H](O)[C@H]1O)C3 [Dulcoside A] | 30 times | – | –
6 | C=C1C[C@@]23CC[C@H]4[C@@](C)(CCC[C@@]4(C)C(=O)O[C@@H]4O[C@H](CO)[C@@H](O)[C@H](O)[C@H]4O)[C@@H]2CC[C@]1(O[C@@H]1O[C@H](CO)[C@@H](O)[C@H](O)[C@H]1O)C3 [rubusoside] | – | significantly inferior to that of stevioside | –
7 | C=C1C[C@@]23CC[C@H]4[C@@](C)(CCC[C@@]4(C)C(=O)O[C@@H]4O[C@H](CO)[C@@H](O)[C@H](O)[C@H]4O)[C@@H]2CC[C@]1(O[C@@H]1O[C@H](CO)[C@@H](O)[C@H](O[C@@H]2O[C@H](CO)[C@@H](O)[C@H](O)[C@H]2O)[C@H]1O[C@@H]1O[C@H](CO)[C@@H](O)[C@H](O)[C@H]1O)C3 [Rebaudioside A, (3R,4S,5S,6R)-3,4,5-trihydroxy-6-(hydroxymethyl)tetrahydro-2H-pyran-2-yl(4R,4αS,11αR,11βS)-10-(((2R,3R,5R,6R)-5-hydroxy-6-(hydroxymethyl)-3,4-bis(((2S,3R,4S,5S,6R)-3,4,5-trihydroxy-6-(hydroxymethyl)tetrahydro-2H-pyran-2-yl)oxy)tetrahydro-2H-pyran-2-yl)oxy)-4,11β-dimethyl-8-methylenetetradecahydro-6α,9-methanocyclohepta[a]naphthalene-4-carboxylate] | – | the least astringent, the least bitter, and the least persistent aftertaste | sweetness potency, times more potent than sucrose [1]: 350-450 times; taste quality / sensory attributes ([2]; listed as rebaudioside A): clearly surpasses stevioside and rebaudioside B
8 | C=C1C[C@@]23CCC4[C@@](C)(CCC[C@@]4(C)C(=O)OC4O[C@H](CO)[C@@H](O)[C@H](O)[C@H]4O)C2CC[C@]1(O[C@@H]1O[C@H](CO)[C@@H](O)[C@H](O[C@@H]2O[C@H](CO)[C@@H](O)[C@H](O)[C@H]2O)[C@H]1O[C@H]1O[C@H](C)[C@@H](O)[C@H](O)[C@@H]1O)C3 (some centres unmarked) [Rebaudioside C] | 40-60 times | – | –
